Results taken from ChEMBL document CHEMBL4334528, “Structure, Biosynthesis, and Bioactivity of Photoditritide from Photorhabdus temperata Meg1” (J Nat Prod, 2019).
In brackets after ≈: the same amount, converted by molar mass.

How the values were obtained:
[1] = system: L6; experiment: Cytotoxicity against rat L6 cells measured after 72 hrs by alamar blue dye based fluorimetry analysis; format: cell-based; details: L6, 72 h
[2] = system: Micrococcus luteus; experiment: Antibacterial activity against Micrococcus luteus assessed as bacterial growth inhibition by CLSI protocol based broth microdilution assay; format: functional
[3] = system: Plasmodium falciparum; experiment: Antiplasmodial activity against Plasmodium falciparum NF54 measured after 24 hrs in presence of [3H] hypoxanthine by liquid scintillation counter analysis; format: functional, organism-based
[4] = system: Clavispora lusitaniae; experiment: Antifungal activity against Candida lusitaniae DSM 70102 assessed as fungal growth inhibition by EUCAST method; format: functional
[5] = system: Trypanosoma cruzi; experiment: Antitrypanosomal activity against Trypanosoma cruzi Tulahuen C4 infected in rat L6 cells measured after 96 hrs by inverted microscopy analysis; format: functional, organism-based; details: Tulahuen C4, L6, 96 h
[6] = system: Escherichia coli; experiment: Antibacterial activity against Escherichia coli OP50 assessed as bacterial growth inhibition by CLSI protocol based broth microdilution assay; format: functional
[7] = system: Leishmania donovani; experiment: Antileishmanial activity against Leishmania donovani MHOM/ET/67/L82 measured after 72 hrs by alamar blue dye based fluorimetry analysis; format: functional, organism-based; details: MHOM/ET/67/L82, 72 h
[8] = system: Trypanosoma brucei rhodesiense; experiment: Antitrypanosomal activity against Trypanosoma brucei rhodesiense STI B900 measured after 72 hrs by alamar blue dye based fluorimetry analysis; format: functional, organism-based; details: STI B900, 72 h

| MIC [2] [µM] | MIC [4] [µM] | MIC [6] [µM] | SMILES | IC50 [1] [µM] | also measured |
| --- | --- | --- | --- | --- | --- |
| 3 (≈ 3.12 µg/mL) | > 96 | 24 (≈ 24.9 µg/mL) | N=C(N)NCCCC[C@H]1NC(=O)[C@H](Cc2c[nH]c3ccccc23)NC(=O)[C@H](Cc2ccc(O)cc2)NC(=O)[C@@H](Cc2c[nH]c3ccccc23)NC(=O)[C@@H](Cc2ccc(O)cc2)NC(=O)[C@@H](CCCCNC(=N)N)NC1=O | 83 | IC50 [3]: 27 µM; IC50 [5]: 71 µM; IC50 [7]: > 100 µM; IC50 [8]: 13 µM |
| – | 0.42 (≈ 0.388 µg/mL) | – | C[C@@H]1[C@H](O)[C@@H](C)/C=C/C=C/C=C/C=C/C=C/C=C/C=C/[C@H](O[C@@H]2O[C@H](C)[C@@H](O)[C@H](N)[C@@H]2O)C[C@@H]2O[C@](O)(C[C@@H](O)C[C@@H](O)[C@H](O)CC[C@@H](O)C[C@@H](O)CC(=O)O[C@H]1C)C[C@H](O)[C@H]2C(=O)O [AMPHOTERICIN B] | – | – |
| 4.2 (≈ 1.47 µg/mL) | – | – | CC1(C)S[C@@H]2[C@H](NC(=O)[C@H](N)c3ccccc3)C(=O)N2[C@H]1C(=O)O [AMPICILLIN] | – | – |
| – | – | 0.6 (≈ 0.194 µg/mL) | O=C(N[C@H](CO)[C@H](O)c1ccc([N+](=O)[O-])cc1)C(Cl)Cl [CHLORAMPHENICOL] | – | – |
| – | – | – | COc1cc([C@@H]2c3cc4c(cc3[C@H](O)[C@H]3COC(=O)[C@H]23)OCO4)cc(OC)c1OC [PODOFILOX] | 0.007 | – |
